“And” between values parts separate entries of the source, which are not always exact repeats. Identical values can stand only once.
Legend:
[1] = target: T1, bovine activated Factor X (Bos taurus, UniProt P00743); assay: Apixaban-calibrated anti-Xa activity (aXa) chromogenic bioassay on plasma of dosed dogs; format: in vivo
T1 construct: purchased Diagnostica Stago STA Liquid anti-Xa
Experimental: Coagulation assays were performed on platelet-poor, citrated plasma samples by a reference laboratory (Comparative Coagulation Laboratory, Animal Health Diagnostic Center, Ithaca, NY). […] The assay is configured with a bovine activated Factor X reagent that is added in excess to the test plasma and a chromogenic substrate of Factor Xa (STA Liquid anti-Xa, Diagnostica Stago). Residual, uninhibited Factor Xa cleaves the chromogenic substrate such that the inverse of the color change in the reaction mixture is proportional to the drug concentration in the test plasma. […] A mechanical endpoint method (STA Compact, Diagnostica Stago) and human coagulation reagents were used to measure prothrombin time (Thromboplastin LI, Helena Diagnostics, Beaumont, TX) and activated partial thromboplastin time (Dade Actin FS, Dade Behring, Newark, DE). […] Tissue-factor (1:50,000 final dilution) activated TEG was performed using standard equipment (TEG-5000, Haemonetics, Braintree, MA) as previously reported ([35]), with assays conducted per established guidelines ([36]), with a modification to eliminate the rest time to facilitate rapid sample processing. Thromboelastography assays were conducted by experienced operators using four TEG channels and tracings terminated after maximum amplitude was established. Four values were extracted from TEG tracings: reaction time (R-time), clot formation time (K-time), clot formation angle (alpha), and maximum amplitude (MA).
Pairwise comparisons between continuous variables were conducted with Wilcoxon matched-pairs signed rank test, while comparisons of more than two groups were conducted using the Friedman test with Dunn's post-hoc adjustment. Specifically, the Wilcoxon matched-pairs signed rank tests were used to compare the complete blood count and serum chemistry values between baseline and the +24 h time point. Comparisons of pharmacodynamic variables between baseline values and those at discrete sampling intervals were performed using the Friedman test with Dunn's post-hoc correction for multiple comparisons. […] Alpha was set at 0.05. Statistical analyses were performed using commercial software (Prism 9, GraphPad, La Jolla, CA).

[2] = Pharmacokinetics after oral apixaban capsules, plasma concentrations by LC/MS; settings: for AUC: AUC (area-under-the-curve); for Cmax: CMax (peak concentration); for bioavailability: F% (fraction of oral dose absorbed, bioavailability); for half-life: K10 T½ (apparent elimination half-life); for Vd/F: V/F (volume of distribution per fraction absorbed)
Source text: (§1) Additionally, drug metabolism might be different in beagles compared with mixed-breed dogs ([33], [34]). […] The study was approved by the Institutional Animal Care and Use Committee (IACUC) at Cornell University College of Veterinary Medicine (Protocol #2019-0099). All dogs were housed at Cornell University and cared for by licensed veterinarians and technicians according to established protocols. All dogs were permanently adopted into private homes after study completion.
To achieve uniform dosing, custom IV (2.5 mg/ml) and oral capsule formulations were created. The protocol for generation of the IV formulation was as previously published ([25]), and all procedures were performed in a laminar flow hood under strict aseptic conditions. […] After vortexing, the formulation was aseptically filtered (Corning 0.22 μm cellulose acetate filter, Millipore-Sigma) then drawn into 10 ml syringes (BD, Franklin Lakes, NJ). The IV formulation was prepared 1 h before administration and stored in the dark at 20-25°C. […] All injection durations were identical. Separately, all dogs received bodyweight appropriate capsule size to provide ~0.2 mg/kg PO once. Capsules were administered without food and witnessed to be ingested. A minimum washout period of 2 weeks elapsed between initial PO administration and subsequent IV administration. The maximum duration of capsule storage prior to administration was 76 days.
On the days of drug administration, 5 Fr × 25 cm trilumen wire-guided catheters (Mila International, Erlanger, KY) were aseptically placed in external jugular veins by modified-Seldinger technique to facilitate atraumatic, repeat blood sample collection. Dogs were sedated with IV butorphanol 0.2 mg/kg and dexmedetomidine 5 μg/kg (Zoetis, Parsippany, NJ) to facilitate catheter placement. Jugular catheters were secured using 3-0 nylon sutures, protected with sterile bandages, and flushed with 0.9% saline (no heparin was used). Dogs were allowed to recover fully from sedation prior to drug administration. […] Catheters were flushed with 0.9% saline, without heparin. Samples were also drawn into K2-EDTA and no-additive tubes at baseline and 24 h post-administration for complete blood counts and serum biochemistry profiles. Dogs were closely monitored for adverse reactions throughout the sample collection period. […] After each sample collection, one citrate anticoagulated whole blood sample was analyzed using thromboelastography (TEG), while the second citrate sample was centrifuged (1,370 g, 10 min, 20°C), the plasma separated, split into two aliquots and then frozen at −80°C pending batch analyses.
In brief, proteins in the sample were initially precipitated by combining 100 μl of plasma sample with 200 μl of 0.1 M ZnSO4 solution and 700 μl of isotope standard stock solution, mixing in a vortex device for 5 s followed by centrifugation (14,000 g, 5 min, RT). The supernatant was added to glass autosampler vials and an aliquot injected into the liquid chromatography 2D UPLC system (Waters Acquity UPLC H-class with 2D Technology System). Sample extraction was performed using a 2.1 × 30 mm reverse phase cartridge (column 1, Waters, XBridge C8, 10 μm) followed by an analytical separation on a 2.1 × 50 mm reverse phase column (column 2, Waters, Acquity UPLC BEH C18, 1.7 μm) and an elution with a linear gradient using water containing 0.1% formic acid and 2 mmol/L ammonium acetate and methanol containing 0.1% formic acid and 2 mmol/L ammonium acetate. […] A 10-point calibration curve was generated with concentrations ranging from 1 to 1,000 ng/ml, with three quality control samples at each of three concentrations (low, 2.5 ng/ml; medium, 50 ng/ml; high, 500 ng/ml).
Where C is the plasma drug concentration, V is the volume of distribution, D is the dose, K10 is the first order elimination rate constant, and T is time. Secondary parameters included area-under-the curve (AUC), systemic clearance (CL), and half-life.

healthy mixed-breed dogs = assay: Monitoring for adverse reactions after IV and PO apixaban; settings: study period
Source text: as §1
On the days of drug administration, 5 Fr × 25 cm trilumen wire-guided catheters (Mila International, Erlanger, KY) were aseptically placed in external jugular veins by modified-Seldinger technique to facilitate atraumatic, repeat blood sample collection. Dogs were sedated with IV butorphanol 0.2 mg/kg and dexmedetomidine 5 μg/kg (Zoetis, Parsippany, NJ) to facilitate catheter placement. Jugular catheters were secured using 3-0 nylon sutures, protected with sterile bandages, and flushed with 0.9% saline (no heparin was used). […] Dogs were closely monitored for adverse reactions throughout the sample collection period. […] After each sample collection, one citrate anticoagulated whole blood sample was analyzed using thromboelastography (TEG), while the second citrate sample was centrifuged (1,370 g, 10 min, 20°C), the plasma separated, split into two aliquots and then frozen at −80°C pending batch analyses.

[3] = both, mixed-breed, dog, plasma, po, 0.2 mg/kg, dogs, mean dose 0.2 mg/kg, geometric mean, n = 5
[4] = both, mixed-breed, dog, plasma, po, 0.2 mg/kg, dogs, mean dose 0.2 mg/kg, mean, n = 5
[5] = dogs, PO, mean dose 0.2 mg/kg, model fit, individual dogs (Dog 1-5), 0.2 mg/kg
[6] = dogs, PO, mean dose 0.2 mg/kg, geometric mean, n = 5
[7] = dogs, PO, mean dose 0.2 mg/kg, individual dogs (Dog 1-5), 0.2 mg/kg
[8] = dogs, PO, mean dose 0.2 mg/kg, mean, n = 5

T1 sequence (P00743 234-492 limits assumed): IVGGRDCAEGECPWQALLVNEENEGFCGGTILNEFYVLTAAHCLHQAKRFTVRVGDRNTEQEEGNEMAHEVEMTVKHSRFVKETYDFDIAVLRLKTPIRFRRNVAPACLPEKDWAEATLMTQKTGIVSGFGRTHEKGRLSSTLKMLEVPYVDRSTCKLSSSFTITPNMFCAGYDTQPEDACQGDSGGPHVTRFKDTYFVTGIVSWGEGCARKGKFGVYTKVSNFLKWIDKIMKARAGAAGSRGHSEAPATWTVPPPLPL
T1 sequence (P00743 41-180 limits assumed): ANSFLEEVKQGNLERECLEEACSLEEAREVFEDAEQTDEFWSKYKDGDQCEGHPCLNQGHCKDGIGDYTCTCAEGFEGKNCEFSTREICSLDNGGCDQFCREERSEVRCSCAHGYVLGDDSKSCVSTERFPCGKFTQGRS

COc1ccc(-n2nc(C(N)=O)c3c2C(=O)N(c2ccc(N4CCCCC4=O)cc2)CC3)cc1 [apixaban]
mean aXa activity following intravenous injection ([1]; IV 0.18 mg/kg, at mean plasma concentration […]): 650 ng/mL
Emax (anti-Xa activity) ([1]; IV, mean dose 0.18 mg/kg, model E=(Emax x C)/(C+EC50)): 1400.5 ng/mL
mean aXa activity compared with human values ([1]; PO 0.2 mg/kg): remained below values typically observed for human moderate to high dose anticoagulant effect
aXa corresponding to the mean maximum observed plasma concentration ([1]; PO 0.2 mg/kg, 6 h post-dosing): 128 ng/mL
time of peak aXa activity ([1]; following oral administration 0.2 mg/kg): approximately 5 h
mean maximum observed plasma concentration (CMax) ([2]; both, mixed-breed, dog, in vivo, po): 176 ± 126 ng/mL
CL/F ([2]; both, mixed-breed, dog, in vivo, po, 0.2 mg/kg): 1.88 mL/min/kg
AUC [2, 3]: 1770 ng·h/mL
AUC [2, 4]: 1950 ng·h/mL
CL/F ([2]; both, mixed-breed, dog, plasma, po, 0.2 mg/kg, CL/F (systemic clearance per fraction absorbed), dogs, mean dose 0.2 mg/kg, mean, n = 5): 2.08 mL/min/kg
Cmax ([2]; both, mixed-breed, dog, plasma, po, 0.2 mg/kg, dogs, mean dose 0.2 mg/kg, model fit, geometric mean, n = 5): 196 ng/mL
Cmax ([2]; both, mixed-breed, dog, plasma, po, 0.2 mg/kg, dogs, mean dose 0.2 mg/kg, model fit, mean, n = 5): 223 ng/mL
bioavailability ([2]; both, mixed-breed, dog, plasma, po, 0.2 mg/kg, dogs, PO 0.2 mg/kg vs IV 0.18 mg/kg, geometric mean, n = 5): 24.1%
bioavailability ([2]; both, mixed-breed, dog, plasma, po, 0.2 mg/kg, dogs, PO 0.2 mg/kg vs IV 0.18 mg/kg, mean, n = 5): 28.4%
half-life [2, 3]: 3 h
half-life ([2]; both, mixed-breed, dog, plasma, po, 0.2 mg/kg, dogs, mean dose 0.2 mg/kg, individual dogs (Dog 1-5)): 3.8 h
half-life [2, 4]: 3.1 h
TMax ([2]; both, mixed-breed, dog, plasma, po, 0.2 mg/kg, TMax, dogs, mean dose 0.2 mg/kg, model fit, geometric mean, n = 5): 5 h
TMax ([2]; both, mixed-breed, dog, plasma, po, 0.2 mg/kg, TMax, dogs, mean dose 0.2 mg/kg, model fit, individual dogs (Dog 1-5)): 3.5 h
Vd/F [2, 3]: 0.492 L/kg
Vd/F [2, 4]: 0.534 L/kg
F% (fraction of oral dose absorbed, bioavailability) ([2]; dogs, PO 0.2 mg/kg vs IV 0.18 mg/kg, individual dogs (Dog 1-5)): 35.0% and 51.5% and 15.0% and 10.0% and 30.4%
residual plasma concentrations ([2]; dogs, PO 0.2 mg/kg, quantifiable at the 24-h time point): declined to below the level of quantitation by the 30-h time point
AUC (area-under-the-curve) ([2]; dogs, PO capsule, mean dose 0.2 mg/kg, fasted, individual dogs (Dog 1-5), 0.2 mg/kg): 2,082.4 h*ng/ml and 2,396.3 h*ng/ml and 1,335.5 h*ng/ml and 863.4 h*ng/ml and 3,051.2 h*ng/ml
CMax (peak concentration) [2, 5]: 236.2 ng/mL and 294.3 ng/mL and 165.1 ng/mL and 71.4 ng/mL and 348.5 ng/mL
TMax [2, 5]: 4.4 h and 4.9 h and 6.3 h and 6.1 h
TMax (time to CMax) ([2]; dogs, PO, mean dose 0.2 mg/kg, model fit, mean, n = 5, 0.2 mg/kg): 5 h
K01 (first order absorption rate) [2, 6]: 0.4 h⁻¹
K10 (first order elimination rate) [2, 6]: 0.2 h⁻¹
TLag (lag time for capsule dissolution and stomach emptying) [2, 6]: 1.8 h
CL/F (systemic clearance per fraction absorbed) [2, 7]: 1.64 mL/min/kg and 1.33 mL/min/kg and 2.597 mL/min/kg and 3.668 mL/min/kg and 1.15 mL/min/kg
K01 (first order absorption rate) [2, 7]: 0.7 h⁻¹ and 0.5 h⁻¹ and 0.3 h⁻¹ and 0.2 h⁻¹ and 0.6 h⁻¹
K10 (first order elimination rate) [2, 7]: 0.2 1/h (4×) and 0.3 1/h
TLag (lag time for capsule dissolution and stomach emptying) [2, 7]: 0.9 h and 1.6 h and 1.9 h and 1.8 h and 3.4 h
V/F (volume of distribution per fraction absorbed) [2, 7]: 0.5407 L/kg and 0.3267 L/kg and 0.4659 L/kg and 0.9747 L/kg and 0.3612 L/kg
K01 (first order absorption rate) [2, 8]: 0.5 h⁻¹
K10 (first order elimination rate) [2, 8]: 0.2 h⁻¹
TLag (lag time for capsule dissolution and stomach emptying) ([2]; dogs, PO, mean dose 0.2 mg/kg, mean, n = 5, 0.2 mg/kg): 2 h and 2.0 h
time of mean maximum observed plasma concentration ([2]; dogs, single oral dose 0.20 mg/kg, post-dosing, observed): 6 h
adverse reactions, including signs of abnormal bleeding or bruising (healthy mixed-breed dogs): no adverse reactions

From article PMC8287028 (Frontiers in Veterinary Science, 2021)
